Source: paper PMC3454389, “Mining the Sinorhizobium meliloti Transportome to Develop FRET Biosensors for Sugars, Dicarboxylates and Cyclic Polyols” (PLoS ONE, 2012)

How the values were obtained:
SMc04259-CY = SMc04259-CY (Sinorhizobium meliloti, UniProt Q92P64); experiment: FRET biosensor SMc04259-CY, in vitro ligand titration; format: binding; conditions: SMc04259-CY
Experimental: (§1) Ligand-induced FRET ratio changes of purified FRET biosensor were screened using a LS55 luminescence spectrometer (PerkinElmer Instruments). Excitation (ex.) was at (λ/slit width) 433/10 nm (CFP) or 549/10 nm (OFP). Emission (em.) was measured at 475/10 nm (CFP), 527/10 nm (YFP), 573/10 nm (OFP) and 644/10 nm (RFP). To confirm that Aphrodite and mKate2 were properly folded their fluorescence was individually tested by direct excitation at 510/6 nm and 588/10 nm respectively.
(§2) Affinity constants (Kd) of FRET biosensors with specific ligands were established using a monochromator microplate reader (Safire, Tecan, Switzerland; CFP ex.: (λ\bandwidth) 433/12 nm, em.: 475/12 nm; YFP em.: 527/12 nm. OFP ex.: 533/12 nm, em.: 563/12 nm; RFP em.: 615/12 nm). Proteins were diluted to give relative fluorescence units (RFU) in the detection range of 30,000 to 50,000 RFU at a gain of 90 to 100, and then were added to a dilution series (10^−3 to 10^−11 M) of ligand in Tris-HCl (pH 8.5, 50 mM). The change in relative emission intensities at 527/477 nm (YFP/CFP) or 615/563 nm (RFP/OFP) was used to determine Kd by fitting the titration curves to a single-site-binding isotherm: [drawing 1] with: R, ratio; Rapo, ratio without ligand; Rsat, ratio at saturation of ligand; n, number of equal binding sites; [L], ligand concentration. Non-linear regression was used to fit the curves using SigmaPlot 11 (Systat Software Inc.) (Hill equation, 4 Parameters, b = 1). All measurements were done in quadruplicate.

RL2376-CY = biological target: T1, RL2376-CY (Rhizobium leguminosarum, UniProt Q1MGQ3); experiment: FRET biosensor RL2376-CY, in vitro ligand titration; format: binding
T1 sequence (Q1MGQ3 24-320): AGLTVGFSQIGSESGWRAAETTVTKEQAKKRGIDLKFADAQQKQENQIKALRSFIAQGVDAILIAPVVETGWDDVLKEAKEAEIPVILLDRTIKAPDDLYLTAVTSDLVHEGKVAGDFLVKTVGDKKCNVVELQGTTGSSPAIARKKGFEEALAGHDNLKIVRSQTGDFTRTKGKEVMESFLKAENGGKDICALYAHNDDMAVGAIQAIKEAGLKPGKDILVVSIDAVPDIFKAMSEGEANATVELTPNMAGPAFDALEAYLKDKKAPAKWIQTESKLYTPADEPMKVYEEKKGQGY
Experimental: as §1, §2

[1] = biological target: T2, eCFP-MglB-Aphrodite fusion protein (Escherichia coli, UniProt P0AEE5, F39A); experiment: Validation of pCYS with glucose binding protein MglB FRET fusion; conditions: purified eCFP-MglB-Aphrodite from pLMB240 (pCYS)
T2 construct: MglB core from pFLIPglu600µΔ13 - SpeI - BD cloning in pCYS - For; made in house; host or cells: E. coli Rosetta2
T2 sequence (P0AEE5 24-332 F39A limits assumed): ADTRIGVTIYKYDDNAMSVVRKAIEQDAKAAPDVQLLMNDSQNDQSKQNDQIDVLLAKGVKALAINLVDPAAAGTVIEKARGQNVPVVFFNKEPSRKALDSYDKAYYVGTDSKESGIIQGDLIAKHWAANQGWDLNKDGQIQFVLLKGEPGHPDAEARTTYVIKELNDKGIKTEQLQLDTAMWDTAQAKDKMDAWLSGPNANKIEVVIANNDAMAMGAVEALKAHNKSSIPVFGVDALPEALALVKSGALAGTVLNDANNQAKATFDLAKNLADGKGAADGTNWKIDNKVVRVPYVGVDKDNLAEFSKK
Experimental: The FRET vector pCYS was tested by inserting the glucose binding protein from Escherichia coli (MglB). This SBP was reported to have a FRET Δ ratio ranging from −8% to −28% upon binding of glucose that depended on linker length. The purified eCFP-MglB-Aphrodite fusion protein from pLMB240 (Table S1) gave a FRET Δ ratio of −19%, thus validating this vector and the choice of short linkers (of four and three amino acids) which we had incorporated into its design (Fig. 1B).
as §1

[2] = biological target: T2, eCFP-MglB-Aphrodite fusion protein; conditions: MglB sensors, depended on linker length; cited from earlier work
SMb20036-CY = SMb20036-CY (Sinorhizobium meliloti, UniProt Q92XC3); experiment: biochemical; format: binding
SMb20036-CY, sequence (Q92XC3 entry or part of it): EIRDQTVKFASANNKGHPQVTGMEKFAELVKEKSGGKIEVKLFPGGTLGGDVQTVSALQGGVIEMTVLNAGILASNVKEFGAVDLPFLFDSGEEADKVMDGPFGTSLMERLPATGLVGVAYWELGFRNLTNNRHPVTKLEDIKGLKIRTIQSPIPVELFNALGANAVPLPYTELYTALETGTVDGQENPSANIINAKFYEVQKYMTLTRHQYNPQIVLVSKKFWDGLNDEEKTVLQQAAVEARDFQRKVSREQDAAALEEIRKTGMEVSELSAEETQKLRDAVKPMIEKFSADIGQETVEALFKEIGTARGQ
Experimental: as §1, §2

SMb20036 FBS-RO version = experiment: FBS-RO version of SMb20036 biosensor, FRET ratio change on ligand; format: binding, Sinorhizobium meliloti; conditions: FBS-RO version (RFP/OFP) of SMb20036
Experimental: as §1
as §2, with “Non-linear regression was used to fit the curves using SigmaPlot 11 (Systat Software Inc.) (Hill equation, 4 Parameters, b = 1). All measurements were done in quadruplicate.” left out

RL2376-RO = experiment: RL2376-RO, FRET ratio change on ligand; format: binding, Rhizobium leguminosarum
Experimental: as §1
as §2, with “Non-linear regression was used to fit the curves using SigmaPlot 11 (Systat Software Inc.) (Hill equation, 4 Parameters, b = 1). All measurements were done in quadruplicate.” left out

YtfQ = biological target: YtfQ; design: method as in PMID 19744923; conditions: YtfQ from E. coli; cited from earlier work
[3] = system: genes encoding the ABC-transporter (RL2376-9); conditions: RL2376, Table 1; cited from earlier work

SMc04259-CY, sequence (Q92P64 entry or part of it): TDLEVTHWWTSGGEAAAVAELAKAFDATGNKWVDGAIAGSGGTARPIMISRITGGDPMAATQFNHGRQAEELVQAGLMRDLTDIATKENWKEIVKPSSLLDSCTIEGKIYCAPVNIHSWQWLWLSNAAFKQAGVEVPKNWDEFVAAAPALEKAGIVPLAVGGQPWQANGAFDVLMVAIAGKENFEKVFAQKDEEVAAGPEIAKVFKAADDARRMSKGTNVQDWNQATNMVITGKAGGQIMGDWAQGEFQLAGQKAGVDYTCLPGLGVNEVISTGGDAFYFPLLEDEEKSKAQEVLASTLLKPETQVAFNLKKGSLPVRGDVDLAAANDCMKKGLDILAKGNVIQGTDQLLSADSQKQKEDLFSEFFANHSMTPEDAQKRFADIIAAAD

Compound: OC[C@H]1OC(O)[C@H](O)[C@@H](O)[C@@H]1O (some centres unmarked) [glucose]
- change in FRET with compound (SMc04259-CY): no change in FRET
- change in FRET ratio on addition of compound (RL2376-CY): no change in FRET ratio
- FRET Δ ratio [1]: −19%
- FRET Δ ratio upon binding of glucose [2]: −8% to −28%

Compound: O=C(O)[C@]1(O)C[C@@H](O)[C@@H](O)[C@H](O)C1 [D-quinic acid]
- difference in the affinity for D-quinic acid compared with that for shikimic acid (SMb20036-CY): > 15,000 fold
- Kd (SMb20036-CY; pCYS (pLMB229), Tris-HCl pH 8.5): 5.9 nM
- change in FRET ratio on binding ligand (SMb20036 FBS-RO version): no change in FRET ratio

Compound: O=C[C@H](O)[C@@H](O)[C@@H](O)[C@H](O)CO [D-galactose]
- Kd (RL2376-CY; pCYS (pLMB394), Tris-HCl pH 8.5, read-out: Kd): 5300 nM
- change in FRET ratio on binding ligand (RL2376-RO): no change in FRET ratio
- Kd (YtfQ): 1700 ± 300 nM
- Inducer of gene expression (fold change) [3]: D-galactose (2.6) fold
